Assays:
Type in all cases: ADME, Microsome
Liver microsomes [1] = test: Irreversible covalent binding in human liver microsomes at 10 uM after 1 hr
Liver microsomes [2] = test: Irreversible covalent binding in human liver microsomes at 100 uM after 30 mins; conditions: 0.5 h
Liver microsomes [3] = test: Irreversible covalent binding in rat liver microsomes after 1 hr

Activity (Liver microsomes [1])	Activity (Liver microsomes [2])	Activity (Liver microsomes [3])	Compound
460 pmol/mg	3.6%	550 pmol/mg	N#CN1CCC(NS(=O)(=O)c2ccccc2)C1 (configuration not stated)
7 pmol/mg	0.06%		[3H]C([3H])([3H])S(=O)(=O)c1ccc(-c2ccc([C@H](N[C@@H](CC(C)C)C(=O)NCC#N)C(F)(F)F)cc2)cc1
70 pmol/mg	0.5%		COCCN1CCC(Cc2ccc(C(=O)NCc3cnc(C#N)nc3NCC(C)(C)C)cc2)CC1
